# System: H358 cells
# Assay: Uptake of Calcein AM-labelled RBCEVs by H358 cells (FACS)
# Format: cell-based, human
# Details: 5-20 μg/ml Filipin
# Method: To test the uptake of RBCEVs by the cells, we labelled RBCEVs with Calcein AM, a fluorescent dye, and sortagged the labelled RBCEVs with biotinylated EGFR-targeting peptide as described above. The labelled and sortagged RBCEVs were washed extensively with SEC and 2 rounds of centrifugation. We incubated H358 cells with a suboptimal dose of the labelled RBCEVs and analysed Calcein AM fluorescence in the cells after 2 hours of incubation (FIG. 8C). The fluorescent background was determined based on the supernatant of the last wash (flowthrough) of the labelled RBCEVs.
# In a shorter uptake assay, H358, HCC827, MOLM13 and THP1 cells were incubated with Calcein AM-labelled RBCEVs for 1 to 2 hours at 37° C. To identify the route of EV uptake, we added 25-100 μM EIPA, 5-20 μg/ml Filipin, 0.25-1 μM Wortmannin.
# Flow cytometry of latex beads or cells in FACS buffer was performed using a CytoFLEX-S cytometer (Beckman Coulter) and analyzed using Flowjo V10 (Flowjo, USA). The beads or cells were initially gated based on FSC-A and SSC-A to exclude the debris and dead cells (low FSC-A). The cells were further gated based on FSC-width vs. FSC-height, to exclude doublets and aggregates.
smiles,measurement,value
CCCCC[C@@H](O)[C@H]1C(=O)O[C@H](C)[C@@H](O)/C=C/C=C/C=C/C=C/C=C(\C)[C@@H](O)C[C@H](O)C[C@H](O)C[C@H](O)C[C@H](O)C[C@H](O)C[C@@H]1O [Filipin],effect of endocytosis inhibitor on uptake of ET-ligated RBCEVs,reduce the uptake
